{"source": "patent US20220267352A1", "about": "“RAPAMYCIN ANALOGS AND USES THEREOF” (Anakuria Therapeutics, Inc., priority 2021, published 2022)", "format_in_all_cases": "cell-based", "key": {"[1]": {"system": "p-p70 S6 Kinase (Thr389) in MCF-7 cells", "test": "AlphaLISA Ultra pS6K1 assay", "settings": "Homo sapiens, 1.5 h; MCF7 cells, 90 min", "outline": "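Phospho-S6K1 (Thr389) quantified by AlphaLISA Ultra read-out (2 h acceptor, then 2 h donor beads) in lysates of MCF-7 cells. Cells were plated 20–24 h before, refed 2 h, exposed to compounds for 90 min at 0.5% final DMSO, and lysates stored at −80 °C.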"}, "[2]": {"system": "p-Akt 1/2/3 (Ser473) in MCF-7 cells", "test": "AlphaLISA Ultra pAKT assay", "settings": "Homo sapiens, 1.5 h; MCF7 cells, 90 min", "outline": "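MCF-7 cells (16,000˜20,000 per well in 36 μL medium) were seeded in Corning 3701 plates for 20˜24 hour, refreshed with new medium for 90 minutes, then given 12 μL of 4× compound (0.5% final DMSO). Cells were lysed with 2× lysis buffer, and lysate was analyzed by AlphaLISA Ultra pAKT using acceptor and donor beads, read on an EnSpire reader.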"}, "[3]": {"system": "mTORC1 over mTORC2", "test": "mTORC1 over mTORC2 selectivity by comparing pS6K1 and pAKT IC50", "settings": "by comparing pS6K1 and pAKT IC50, 90 min", "outline": "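MCF-7 cells were treated with compounds (0.5% final DMSO) for 90 minutes in one protocol and 2 hours in the other, then lysed. Phospho-signal in lysates was read by bead-based donor/acceptor proximity assay. pS6K1 and pAKT IC50 values were compared to judge mTORC1 over mTORC2 selectivity, at 90 min and at 24 hrs.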"}}, "data": [{"smiles": "CO[C@@H]1C[C@H](C[C@@H](C)[C@@H]2CC(=O)[C@H](C)/C=C(\\C)[C@@H](O)[C@@H](OC)C(=O)[C@H](C)C[C@H](C)/C=C/C=C/C=C(\\C)C(OCCOC3CCOCC3)C[C@@H]3CC[C@@H](C)[C@@](O)(O3)C(=O)C(=O)N3CCCC[C@H]3C(=O)O2)CC[C@H]1OP(C)(C)=O", "note": "(stereo partly drawn) [I-86, (1R,9S,12S,15R,16E,18R,19R,21R,23S,24E,26E,28E,32S,35R)-12-[(1R)-2-[(1S,3R,4R)-4-dimethylphosphoryloxy-3-methoxy-cyclohexyl]-1-methyl-ethyl]-1,18-dihydroxy-19-methoxy-15,17,21,23,29,35-hexamethyl-30-(2-tetrahydropyran-4-yloxyethoxy)-11,36-dioxa-4-azatricyclo[30.3.1.0^4,9]hexatriaconta-16,24,26,28-tetraene-2,3,10,14,20-pentone]", "values": [{"measurement": "IC50", "setting": "[1]", "result": "< 1", "unit": "nM"}, {"measurement": "IC50", "setting": "[2]", "result": "≥ 1000", "unit": "nM"}, {"measurement": "mTORC1 selective @ 90 min", "setting": "[3]", "result": "Yes"}]}, {"smiles": "COCCO[C@@H]1CC[C@@H](C[C@@H](C)[C@@H]2CC(=O)[C@H](C)/C=C(\\C)[C@@H](OC)[C@@H](OC)C(=O)[C@H](C)C[C@H](C)/C=C/C=C/C=C(\\C)C(OCCOC3COC3)C[C@@H]3CC[C@@H](C)[C@@](O)(O3)C(=O)C(=O)N3CCCC[C@H]3C(=O)O2)C[C@H]1OC", "note": "(stereo partly drawn) [I-94, (25E,27E,29E,30E,36R,37S,38R,39R,41S,43S,46S,48R,49R,58R)-58-hydroxy-48,49-dimethoxy-46-[(1R)-2-[(1S,3R,4R)-3-methoxy-4-(2-methoxyethoxy)cyclohexyl]-1-methyl-ethyl]-36,37,38,39,50,51-hexamethyl-45-[2-(oxetan-3-yloxy)ethoxy]-67,68-dioxa-59-azatricyclohexatriaconta-25,27,29(50),30(51)-tetraene-52,53,54,55,56-pentone]", "values": [{"measurement": "IC50", "setting": "[1]", "result": "10 to 100", "unit": "nM"}, {"measurement": "IC50", "setting": "[2]", "result": "≥ 1000", "unit": "nM"}, {"measurement": "mTORC1 selective @ 90 min", "setting": "[3]", "result": "Yes"}]}, {"smiles": "CO[C@@H]1C[C@H](C[C@@H](C)[C@@H]2CC(=O)[C@H](C)/C=C(\\C)[C@@H](O)[C@@H](OC)C(=O)[C@H](C)C[C@H](C)/C=C/C=C/C=C(\\C)[C@H](OCCOC3COC3)C[C@@H]3CC[C@@H](C)[C@@](O)(O3)C(=O)C(=O)N3CCCC[C@H]3C(=O)O2)CC[C@H]1OC(=O)N(C)CCN1CCOCC1", "note": "[I-17, [(43S,45R,47R)-4-[(2R)-2-[(28E,30E,32E,33E,39R,40S,41R,42R,44S,46S,48R,49S,51R,52R,62R)-51,62-dihydroxy-52-methoxy-39,40,41,42,53,54-hexamethyl-48-[2-(oxetan-3-yloxy)ethoxy]-55,56,57,58,59-pentaoxo-76,77-dioxa-64-azatricyclohexatriaconta-28,30,32(53),33(54)-tetraen-49-yl]propyl]-47-methoxy-45-cyclohexyl] N-methyl-N-(2-morpholinoethyl)carbamate]", "values": [{"measurement": "IC50", "setting": "[1]", "result": "1 to 10", "unit": "nM"}, {"measurement": "IC50", "setting": "[2]", "result": "≥ 1000", "unit": "nM"}, {"measurement": "mTORC1 selective @ 90 min", "setting": "[3]", "result": "Yes"}]}, {"smiles": "CO[C@@H]1/C(C)=C/[C@@H](C)C(=O)C[C@@H]([C@H](C)C[C@@H]2CC[C@@H](O)[C@H](OC)C2)OC(=O)[C@@H]2CCCCN2C(=O)C(=O)[C@]2(O)O[C@@H](CC[C@H]2C)CC(OCCOC2COC2)/C(C)=C/C=C/C=C/[C@@H](C)C[C@@H](C)C(=O)[C@@H]1OC", "note": "(stereo partly drawn) [I-11, (3S,6R,7E,9R,10R,12R,14S,15E,17E,19E,23S,26R,27R,34aS)-27-hydroxy-3-((R)-1-((1S,3R,4R)-4-hydroxy-3-methoxycyclohexyl)propan-2-yl)-9,10-dimethoxy-6,8,12,14,20,26-hexamethyl-21-(2-(oxetan-3-yloxy)ethoxy)-9,10,12,13,14,21,22,23,24,25,26,27,32,33,34,34a-hexadecahydro-3H-23,27-epoxypyrido[2,1-c][1]oxa[4]azacyclohentriacontine-1,5,11,28,29(4H,6H,31H)-pentaone]", "values": [{"measurement": "IC50", "setting": "[1]", "result": "10 to 100", "unit": "nM"}, {"measurement": "IC50", "setting": "[2]", "result": "≥ 1000", "unit": "nM"}, {"measurement": "mTORC1 selective @ 90 min", "setting": "[3]", "result": "Yes"}]}, {"smiles": "CO[C@@H]1C[C@H](C[C@@H](C)[C@@H]2CC(=O)[C@H](C)/C=C(\\C)[C@@H](O)[C@@H](OC)C(=O)[C@H](C)C[C@H](C)/C=C/C=C/C=C(\\C)[C@H](OCCOC3COC3)C[C@@H]3CC[C@@H](C)[C@@](O)(O3)C(=O)C(=O)N3CCCC[C@H]3C(=O)O2)CC[C@H]1OCCCN1C[C@@H](C)O[C@@H](C)C1", "note": "[I-100, (27E,29E,31E,32E,39R,40S,41R,44R,46S,48S,50R,51S,53R,54R,63R)-51-[(1R)-2-[(1S,3R,4R)-4-[3-[(2S,6R)-2,6-dimethylmorpholin-4-yl]propoxy]-3-methoxy-cyclohexyl]-1-methyl-ethyl]-53,63-dihydroxy-54-methoxy-39,40,41,44,55,56-hexamethyl-50-[2-(oxetan-3-yloxy)ethoxy]-75,76-dioxa-64-azatricyclohexatriaconta-27,29,31(55),32(56)-tetraene-57,58,59,60,61-pentone]", "values": [{"measurement": "IC50", "setting": "[1]", "result": "1 to 10", "unit": "nM"}, {"measurement": "IC50", "setting": "[2]", "result": "≥ 1000", "unit": "nM"}, {"measurement": "mTORC1 selective @ 90 min", "setting": "[3]", "result": "Yes"}]}, {"smiles": "CNCCOCCOC1C[C@@H]2CC[C@@H](C)[C@@](O)(O2)C(=O)C(=O)N2CCCC[C@H]2C(=O)O[C@H]([C@H](C)C[C@@H]2CC[C@@H](OC)[C@H](OC)C2)CC(=O)[C@H](C)/C=C(\\C)[C@@H](OC)[C@@H](OC)C(=O)[C@H](C)C[C@H](C)/C=C/C=C/C=C/1C", "note": "(stereo partly drawn) [I-90, (24E,26E,28E,29E,35R,36S,37R,38R,40S,42S,45S,46R,47R,56R)-45-[(1R)-2-[(1S,3R,4R)-3,4-dimethoxycyclohexyl]-1-methyl-ethyl]-56-hydroxy-46,47-dimethoxy-35,36,37,38,48,49-hexamethyl-44-[2-[2-(methylamino)ethoxy]ethoxy]-65,66-dioxa-58-azatricyclohexatriaconta-24,26,28(48),29(49)-tetraene-50,51,52,53,54-pentone]", "values": [{"measurement": "IC50", "setting": "[1]", "result": "10 to 100", "unit": "nM"}, {"measurement": "IC50", "setting": "[2]", "result": "≥ 1000", "unit": "nM"}, {"measurement": "mTORC1 selective @ 90 min", "setting": "[3]", "result": "Yes"}]}, {"smiles": "COCCS(=O)(=O)CCO[C@@H]1C[C@@H]2CC[C@@H](C)[C@@](O)(O2)C(=O)C(=O)N2CCCC[C@H]2C(=O)O[C@H]([C@H](C)C[C@@H]2CC[C@@H](OC)[C@H](OC)C2)CC(=O)[C@H](C)/C=C(\\C)[C@@H](OC)[C@@H](OC)C(=O)[C@H](C)C[C@H](C)/C=C/C=C/C=C/1C", "note": "[I-42, (24E,26E,28E,29E,35R,36S,37R,38R,40S,42S,44R,45S,46R,47R,56R)-45-[(1R)-2-[(1S,3R,4R)-3,4-dimethoxycyclohexyl]-1-methyl-ethyl]-56-hydroxy-46,47-dimethoxy-44-[2-(2-methoxyethylsulfonyl)ethoxy]-35,36,37,38,48,49-hexamethyl-66,67-dioxa-57-azatricyclohexatriaconta-24,26,28(48),29(49)-tetraene-50,51,52,53,54-pentone]", "values": [{"measurement": "IC50", "setting": "[1]", "result": "10 to 100", "unit": "nM"}, {"measurement": "IC50", "setting": "[2]", "result": "≥ 1000", "unit": "nM"}, {"measurement": "mTORC1 selective @ 90 min", "setting": "[3]", "result": "Yes"}]}, {"smiles": "COCCOCCO[C@@H]1C[C@@H]2CC[C@@H](C)[C@@](O)(O2)C(=O)C(=O)N2CCCC[C@H]2C(=O)O[C@H]([C@H](C)C[C@@H]2CC[C@@H](OC)[C@H](OC)C2)CC(=O)[C@H](C)/C=C(\\C)[C@@H](OC)[C@@H](OC)C(=O)[C@H](C)C[C@H](C)/C=C/C=C/C=C/1C", "note": "[I-30, (24E,26E,28E,29E,35R,36S,37R,38R,40S,42S,44R,45S,46R,47R,56R)-45-[(1R)-2-[(1S,3R,4R)-3,4-dimethoxycyclohexyl]-1-methyl-ethyl]-56-hydroxy-46,47-dimethoxy-44-[2-(2-methoxyethoxy)ethoxy]-35,36,37,38,48,49-hexamethyl-64,65-dioxa-57-azatricyclohexatriaconta-24,26,28(48),29(49)-tetraene-50,51,52,53,54-pentone]", "values": [{"measurement": "IC50", "setting": "[1]", "result": "10 to 100", "unit": "nM"}, {"measurement": "IC50", "setting": "[2]", "result": "≥ 1000", "unit": "nM"}, {"measurement": "mTORC1 selective @ 90 min", "setting": "[3]", "result": "Yes"}]}, {"smiles": "COCCO[C@@H]1CC[C@@H](C[C@@H](C)[C@@H]2CC(=O)[C@H](C)/C=C(\\C)[C@@H](OC)[C@@H](OC)C(=O)[C@H](C)C[C@H](C)/C=C/C=C/C=C(\\C)[C@H](OCCOC3COC3)C[C@@H]3CC[C@@H](C)[C@@](O)(O3)C(=O)C(=O)N3CCCC[C@H]3C(=O)O2)C[C@H]1OC", "note": "[I-82, (1R,9S,12S,15R,16E,18R,19R,21R,23S,24E,26E,28E,30R,32S,35R)-1-hydroxy-18,19-dimethoxy-12-[(1R)-2-[(1S,3R,4R)-3-methoxy-4-(2-methoxyethoxy)cyclohexyl]-1-methyl-ethyl]-15,17,21,23,29,35-hexamethyl-30-[2-(oxetan-3-yloxy)ethoxy]-11,36-dioxa-4-azatricyclo[30.3.1.0^4,9]hexatriaconta-16,24,26,28-tetraene-2,3,10,14,20-pentone]", "values": [{"measurement": "IC50", "setting": "[1]", "result": "10 to 100", "unit": "nM"}, {"measurement": "IC50", "setting": "[2]", "result": "≥ 1000", "unit": "nM"}, {"measurement": "mTORC1 selective @ 90 min", "setting": "[3]", "result": "Yes"}]}, {"smiles": "CO[C@@H]1C[C@H](C[C@@H](C)[C@@H]2CC(=O)[C@H](C)/C=C(\\C)[C@@H](O)[C@@H](OC)C(=O)[C@H](C)C[C@H](C)/C=C/C=C/C=C(\\C)[C@H](OC[C@@H]3COCCO3)C[C@@H]3CC[C@@H](C)[C@@](O)(O3)C(=O)C(=O)N3CCCC[C@H]3C(=O)O2)CC[C@H]1OCCO", "note": "[I-84, (1R,9S,12S,15R,16E,18R,19R,21R,23S,24E,26E,28E,30R,32S,35R)-30-[[(2S)-1,4-dioxan-2-yl]methoxy]-1,18-dihydroxy-12-[(1R)-2-[(1S,3R,4R)-4-(2-hydroxyethoxy)-3-methoxy-cyclohexyl]-1-methyl-ethyl]-19-methoxy-15,17,21,23,29,35-hexamethyl-11,36-dioxa-4-azatricyclo[30.3.1.04,9]hexatriaconta-16,24,26,28-tetraene-2,3,10,14,20-pentone]", "values": [{"measurement": "IC50", "setting": "[1]", "result": "1 to 10", "unit": "nM"}, {"measurement": "IC50", "setting": "[2]", "result": "≥ 1000", "unit": "nM"}, {"measurement": "mTORC1 selective @ 90 min", "setting": "[3]", "result": "Yes"}]}]}
